From ChEMBL document CHEMBL5370611, “Discovery of 4,5,6,7-Tetrahydropyrazolo[1.5-a]pyrizine Derivatives as Core Protein Allosteric Modulators (CpAMs) for the Inhibition of Hepatitis B Virus” (J Med Chem, 2023)
pEC50: −log10 of the molar value. Converted amounts (≈) assume the structure as drawn. The source made the active and inactive calls. The calls are words filed in the database; no cut-off is given here.

Assays:
[1] = Lyophilization solubility of the compound in phosphate buffer at pH 6.5 incubated for 1 hr under stirring condition and 2 hrs under shaking condition by HPLC-UV analysis; type: physicochemical
[2] = Metabolic stability in mouse liver microsomes assessed as clearance at 1 uM preincubated for 10 mins and measured upto 30 mins in presence of NADPH generating system by LC-MS/MS analysis; type: ADME, Microsome; details: time < 40 min
[3] = Metabolic stability in human liver microsomes assessed as clearance at 1 uM preincubated for 10 mins and measured upto 30 mins in presence of NADPH generating system by LC-MS/MS analysis; type: ADME, Microsome; details: time < 40 min
[4] = Selectivity index, ratio of CC50 for human HepDE19 cells assessed as reduction in cell viability to EC50 for HBV infected in human HepG2.2.15 cells assessed as reduction in HBV DNA replication; type: toxicity, cell-based; details: HBV-infected HepG2.2.15 cells (EC50)
Hepatitis B virus [5] = assay: Antiviral activity against HBV infected in human HepG2.2.15 cells assessed as reduction in HBV DNA replication measured after 5 days by qPCR analysis; type: functional, organism-based; details: HepG2.2.15, 120 h
[6] = Cytotoxicity against human HepDE19 cells assessed as reduction in cell viability measured after 5 days by CCK-8 method; type: functional; details: HepDE19, 120 h, time 5 day
Hepatitis B virus [7] = assay: Inhibition of HBV Cp150 dimer assembly assessed as formation of large abnormal particles at 20 uM incubated for 2 hrs by transmission electron microscopy
[8] = Resistance index, ratio of EC50 for wild type Hepatitis B virus to EC50 for Hepatitis B virus harboring A181T transfected in human HepG2 cells measured after 6 days by qPCR analysis; type: functional; details: time 6 day
[9] = Resistance index, ratio of EC50 for wild type Hepatitis B virus to EC50 for Hepatitis B virus harboring A181V transfected in human HepG2 cells measured after 6 days by qPCR analysis; type: functional; details: time 6 day
[10] = Resistance index, ratio of EC50 for wild type Hepatitis B virus to EC50 for Hepatitis B virus harboring N236T transfected in human HepG2 cells measured after 6 days by qPCR analysis; type: functional; details: time 6 day

O=C(Nc1ccccc1)N1CCn2cnc(-c3ccc(F)cc3)c2C1
solubility at 3 h [1]: < 1 µg/mL
CLhep predicted at 1 µM [2]: 76 mL/min/kg
CLhep predicted at 1 µM [3]: 14 mL/min/kg
selectivity ratio [4]: > 349
pEC50 (Hepatitis B virus [5]): 6.54
CC50 [6]: > 100000 nM

O=C(Nc1ccc(F)c(Cl)c1)N1CCn2ncc(N3CCOCC3)c2C1
solubility at 3 h [1]: 170 µg/mL (≈ 448 µM)
CLhep predicted at 1 µM [2]: 34 mL/min/kg
CLhep predicted at 1 µM [3]: 7.2 mL/min/kg
selectivity ratio [4]: > 376
pEC50 (Hepatitis B virus [5]): 6.58
CC50 [6]: > 100000 nM

O=C(Nc1cccc(Cl)c1)N1CCn2ncc(-c3ccc(F)cc3)c2C1
solubility at 3 h [1]: < 1 µg/mL
CLhep predicted at 1 µM [2]: 71 mL/min/kg
CLhep predicted at 1 µM [3]: 18 mL/min/kg
selectivity ratio [4]: 284
pEC50 (Hepatitis B virus [5]): 6.51
CC50 [6]: 87000 nM

O=C(c1ccccc1)N1CCn2ncc(-c3ccc(F)cc3)c2C1
pEC50 (Hepatitis B virus [5]): 5.42

C[C@H]1Cn2ncc(-c3ccc(F)cc3)c2CN1C(=O)Nc1ccc(F)c(Cl)c1
solubility at 3 h [1]: < 1 µg/mL
selectivity ratio [4]: 2170
pEC50 (Hepatitis B virus [5]): 7.92
CC50 [6]: 26000 nM

O=C(Nc1ccc(F)c(Cl)c1)N1CCn2ncc(-c3ccc(F)cn3)c2C1
solubility at 3 h [1]: < 1 µg/mL
CLhep predicted at 1 µM [2]: 80 mL/min/kg
CLhep predicted at 1 µM [3]: 16 mL/min/kg
selectivity ratio [4]: 320
pEC50 (Hepatitis B virus [5]): 6.96
CC50 [6]: 35000 nM

O=C(Nc1ccccc1F)N1CCn2ncc(-c3ccc(F)cc3)c2C1
selectivity ratio [4]: 13
pEC50 (Hepatitis B virus [5]): 6.03
CC50 [6]: 12000 nM

Cc1cc(NC(=O)N2CCn3ncc(-c4ccc(F)cc4)c3C2)ccc1F
CLhep predicted at 1 µM [2]: 68 mL/min/kg
CLhep predicted at 1 µM [3]: 16 mL/min/kg
selectivity ratio [4]: 830
pEC50 (Hepatitis B virus [5]): 7.49
CC50 [6]: 26000 nM

CCc1cccc(NC(=O)N2CCn3ncc(-c4ccc(F)cc4)c3C2)c1
selectivity ratio [4]: 220
pEC50 (Hepatitis B virus [5]): 6.61
CC50 [6]: 55000 nM

C[C@H]1CN(C(=O)Nc2ccc(F)c(Cl)c2)Cc2c(-c3ccc(F)cc3)cnn21
selectivity ratio [4]: 210
pEC50 (Hepatitis B virus [5]): 6.88
CC50 [6]: 28000 nM

O=C(Nc1cccnn1)N1CCn2ncc(-c3ccc(F)cc3)c2C1
solubility at 3 h [1]: 2 µg/mL (≈ 5.91 µM)
CLhep predicted at 1 µM [2]: 34 mL/min/kg
CLhep predicted at 1 µM [3]: 7 mL/min/kg
pEC50 (Hepatitis B virus [5]): < 5.00
CC50 [6]: > 100000 nM

O=C(NCc1ccccc1)N1CCn2ncc(-c3ccc(F)cc3)c2C1
selectivity ratio [4]: 63
pEC50 (Hepatitis B virus [5]): 5.84
CC50 [6]: 91000 nM

O=C(Nc1ccc(F)c(Cl)c1)N1CCn2ncc(N3CCCC3=O)c2C1
solubility at 3 h [1]: 160 µg/mL (≈ 423 µM)
CLhep predicted at 1 µM [2]: 65 mL/min/kg
CLhep predicted at 1 µM [3]: 7.8 mL/min/kg
selectivity ratio [4]: > 1930
pEC50 (Hepatitis B virus [5]): 7.28
CC50 [6]: > 100000 nM

O=C(Nc1ccccc1)N1CCn2nnc(-c3ccc(F)cc3)c2C1
solubility at 3 h [1]: 32 µg/mL (≈ 94.9 µM)
CLhep predicted at 1 µM [2]: 87 mL/min/kg
CLhep predicted at 1 µM [3]: 14 mL/min/kg
selectivity ratio [4]: > 243
pEC50 (Hepatitis B virus [5]): 6.39
CC50 [6]: > 100000 nM

O=C(Nc1cc(F)cc(F)c1)N1CCn2ncc(-c3ccc(F)cc3)c2C1
selectivity ratio [4]: 49
pEC50 (Hepatitis B virus [5]): 6.66
CC50 [6]: 11000 nM

O=C(Nc1ccc(F)c(Cl)c1)N1CCn2ncc(N3CCCC3)c2C1
solubility at 3 h [1]: 134 µg/mL (≈ 368 µM)
CLhep predicted at 1 µM [2]: 79 mL/min/kg
CLhep predicted at 1 µM [3]: 16 mL/min/kg
selectivity ratio [4]: 440
pEC50 (Hepatitis B virus [5]): 6.66
CC50 [6]: 97000 nM

O=C(Nc1ccc(Cl)c(F)c1)N1CCn2ncc(-c3ccc(F)cc3)c2C1
CLhep predicted at 1 µM [2]: 60 mL/min/kg
Activity (Hepatitis B virus [7]): inactive
CLhep predicted at 1 µM [3]: 15 mL/min/kg
selectivity ratio [4]: 443
pEC50 (Hepatitis B virus [5]): 7.15
CC50 [6]: 31000 nM

O=C(Nc1ccc(F)c(Cl)c1)N1CCn2ncc(N3CCOCC3=O)c2C1
solubility at 3 h [1]: 158 µg/mL (≈ 401 µM)
CLhep predicted at 1 µM [2]: 20 mL/min/kg
CLhep predicted at 1 µM [3]: 6.2 mL/min/kg
selectivity ratio [4]: > 645
pEC50 (Hepatitis B virus [5]): 6.81
CC50 [6]: > 100000 nM

Nc1ncnc2c1ncn2CCOCP(=O)(O)O [ADEFOVIR]
Ratio EC50 [8]: 2.2
Ratio EC50 [9]: 1.6
Ratio EC50 [10]: 2.5

CC1c2c(-c3ccc(F)cc3)cnn2CCN1C(=O)Nc1ccccc1 (stereo not given)
solubility at 3 h [1]: < 1 µg/mL
selectivity ratio [4]: 24
pEC50 (Hepatitis B virus [5]): 5.73
CC50 [6]: 45000 nM

O=C(Nc1ccccc1)N1CCn2ncc(-c3ccc(F)cc3)c2C1
solubility at 3 h [1]: 3 µg/mL (≈ 8.92 µM)
CLhep predicted at 1 µM [2]: 76 mL/min/kg
CLhep predicted at 1 µM [3]: 17 mL/min/kg
selectivity ratio [4]: 204
pEC50 (Hepatitis B virus [5]): 6.49
CC50 [6]: 66000 nM

O=C(Nc1cccc(F)c1)N1CCn2ncc(-c3ccc(F)cc3)c2C1
selectivity ratio [4]: 76
pEC50 (Hepatitis B virus [5]): 6.38
CC50 [6]: 32000 nM
